Data reported in US8822229B2, “Method for assaying keratan sulfate, assay kit therefor and method for detecting joint disease by using the same” (Seikagaku Corporation, priority 2008, dated 2014).

Columns and labels:
[1] = system: adjuvant-induced arthritis (AIA) model in rats; test: adjuvant-induced arthritis (AIA) model in rats, left hind paw edema volume; type: in vivo, rat; details: incadronate 1 mg/kg s.c. once a day from day 14; day 35 after adjuvant; vs AIA control group
Experimental: (§1) In Example 5, 6-week-old male Lewis rats (SPF, Charles River Laboratories Japan, Inc.) were employed. The adjuvant was prepared by suspending heat-killed Mycobacterium butyricum (product of DIFCO) in liquid paraffin (product of Wako Pure Chemical Industries, Ltd.) at a concentration of 6 mg/mL. The adjuvant was subcutaneously administered to each of the rats in the right hind paw (0.3 mg/paw) without anesthesia. Fourteen days after administration, the rats were divided into 4 groups. To a non-treated normal control group, only liquid paraffin was administered to the rats in a similar manner. From the timing of the grouping, incadronate (Bisphonal (registered trademark) injection (10 mg), product of Astellas Pharma Inc.) was subcutaneously administered to the rats every day (once a day) at a dose of 1 mg/kg to the day before the day of sacrifice. […] The edema volume of the left hind paw was measured by means of a volumetric apparatus (TK-101CMP, product of UNICOM). […] The plasma KS level (non-treated control group, AIA control group, and incadronate-administered group) was determined on day 35 after administration of the adjuvant, by means of a conventional KS assay kit (5D4 assay system) and through the KS assay system of the present invention. […]

[2] = adjuvant-induced arthritis (AIA) model in rats, plasma KS level; type: in vivo, rat; details: incadronate 1 mg/kg s.c. once a day from day 14; day 35 after adjuvant; BCD-4/MK-172 assay; vs AIA control group
Experimental: as §1

Question: For `O=P(O)(O)C(NC1CCCCCC1)P(=O)(O)O` [incadronate], which left paw volume [1] is on record?
Answer: The left paw volume was “reduced as compared with the AIA control group”.

Question: What about the “plasma KS level” value [2] of the same compound?
Answer: Its value is “reduced as compared with the AIA control group”.
